Measurements taken from paper PMC8480759, “Inhibitors of histone deacetylase 6 based on a novel 3-hydroxy-isoxazole zinc binding group” (Journal of Enzyme Inhibition and Medicinal Chemistry, 2021).

Tests used:
[1] = system: acetylation levels of histone H3 (HDAC1 target) in DU145 cells; experiment: Western blot of histone H3 acetylation in DU145 cells; type: cell-based, human; conditions: 24 h, 10 µM
Experimental: (§1) The results corroborate the inhibitory activity of 17, 23, 25 and 27 at concentrations lower than 10 µM. […] HDACs contribution to CRPC is known[20] and the possibility to arrest CRPC proliferation by acting on HDAC targets is expanding in the scientific literature[21]^,[22]. After administration of the selected compounds for 24 h at 10 µM concentration, the effect on the acetylation levels of histone H3 and α-tubulin (respectively, HDAC1 and HDAC6 targets) was investigated. […] Lastly, in the same cell line, the anti-proliferative effect was measured in dose and time dependent manner (Figure S4).
Figure S3. Western blotting analysis of the tested and reference compounds SAHA and Tubastatin A on acetylation levels of histone H3 and α-tubulin in DU145 cells. GAPDH and H4 were used as a loading control. Densitometric values were analyzed using ImageJ Software and are reported on the top of bands as the ratio between loading control and acetylated target.
(1 picture or pasted object on this page, not shown here) […]
1.4 Western blot analysis
The prostate cancer cell line DU145 (ATCC) was grown in RPMI medium (Euroclone, Milan, Italy) with 10% fetal bovine serum (Euroclone), 2 mM L-glutamine (Euroclone), and antibiotics (100 U/mL penicillin, […] streptomycin) (Euroclone). Cells were stimulated with drugs for […]
Total Protein Extraction and western blot
After the induction with the test compounds at the indicated times and concentrations, DU145 cells were then harvested, washed with phosphate-buffered saline (PBS) (Euroclone), and lysed for 15 min at 4 °C in lysis extraction buffer with protease and phosphatase inhibitors (50 mM Tris -HCl pH 8.0, 150 mM NaCl, 1% NP40, 10 mM sodium fluoride, 0.1 mM sodium orthovanadate, […] phenylmethylsulfonyl fluoride 58 (PMSF), 20 g/mL aprotinin, […] leupeptin, […] antipain, 10 mM p -nitrophenyl phosphate, […] pepstatin A and 20 nM okada ic acid). Cells were vortexed then centrifuged at 13000 rpm for 30 min at 4 °C. Bradford assay (Biorad, Italy) was used to quantify protein concentration. […] The immune complexes were first detected with horseradish peroxidase-conjugated species-specific secondary antiserum (Bio-Rad Laboratories, Milan, Italy), and then by an enhanced chemiluminescence reaction (Bio-Rad Laboratories, Milan, Italy). […]
were harvested and washed twice with cold 1× PBS and lysed in Triton extraction buffer (TEB; PBS containing 0.5% Triton X 100 (v/v), 2 mM PMSF, and 0.02% (w/v) NaN3) for 10 min on ice, with gentle stirring. […] The samples were then centrifuged at 2000 rpm for 10 min at 4 °C; the concentration of protein in the supernatant was determined […]
using a Bradford assay (Bio-Rad, CA, USA). […] Semi-quantitative analysis was performed using ImageJ software. […]

DU145 cells = experiment: Anti-proliferative assay (MTT cell viability); type: cell-based, human; conditions: for effect on proliferation rate of DU145 cells: 50 µM, MTT, 24, 48, 72 h; for anti-proliferative activity at the lowest concentrations: DU145, late phases, lowest concentrations (tested 1, 5, 10, 50 µM)
Experimental: as §1
Figure S4. Cell viability assay (MTT) of the tested compounds in human prostate cancer cell lines (DU145). Cells were treated with 4 increasing concentrations (1, 5, 10, and 50 µM) of tested compounds, monitored at 24, 48, and 72 hours and tested with SAHA and Tubastatin A as reference compounds. Data are expressed as mean ± SEM. […]
1.5 Anti-proliferative assay
Cell viability was determined on DU145 cell line using Thiazolyl Blue Tetrazolium Bromide [3-(4,5-dimethylthiazol-2-yl)-2,5-diphenyltetrazolium bromide] (MTT; Sigma-Aldrich) assay after treatment with new compounds at indicated concentrations. A total of 2 × 10^4 cells/well were plated in a 96-well plate and treated, in duplicates, with new compounds at different concentrations for 24, 48, and 72 hours. Absorbance was read at a wavelength of 570 nm with a TECAN M-200 reader (Tecan, Männedorf, Switzerland).

Compound | effect on acetylation levels of histone H3 [1] | effect on proliferation rate of DU145 cells (DU145 cells) | anti-proliferative activity at the lowest concentrations (DU145 cells)
Oc1cc(-c2ccc(NCc3ccccc3)cc2)on1 [Compound 23] | no effect | reduced the proliferation rate | exerted anti-proliferative activity
Oc1cc(-c2ccc3c(c2)OCO3)on1 [Compound 25] | no effect | reduced the proliferation rate | exerted anti-proliferative activity
